Converted amounts (≈) assume the structure as drawn.
Legend:
[1] = Protein binding in mouse plasma assessed as free fraction; format: ADME, cell-free
[2] = tested on: Mycobacterium tuberculosis; test: Antitubercular activity against Mycobacterium tuberculosis H37Rv ATCC 27294 cultured in 7H9/ADC/Tw media assessed as inhibition of bacterial growth incubated for 7 days; format: functional; settings: H37Rv ATCC 27294, 168 h, time 7 day
[3] = Stability in mouse plasma assessed as half life; format: ADME, cell-free
[4] = tested on: Mycobacterium tuberculosis; test: Antitubercular activity against Mycobacterium tuberculosis H37Rv ATCC 27294 cultured in 7H9/DPPC/casitone/Tx media assessed as inhibition of bacterial growth incubated for 7 days; format: functional; settings: H37Rv ATCC 27294, 168 h, time 7 day
[5] = tested on: Mycobacterium tuberculosis; test: Antitubercular activity against Mycobacterium tuberculosis H37Rv ATCC 27294 cultured in GAST/Fe media assessed as inhibition of bacterial growth incubated for 7 days; format: functional; settings: H37Rv ATCC 27294, 168 h, time 7 day
[6] = Drug metabolism in mouse plasma assessed as 2-(4-methoxyphenyl)benzo[d]oxazol-5-amine formation; format: ADME, cell-free

COc1ccc(-c2nc3cc(C(=O)NC[C@H](N)Cc4ccccc4)ccc3o2)cc1
Fu [1]: 1.2%
MIC [2]: 6.25 µM (≈ 2.51 µg/mL)
half-life [3]: > 4 h
MIC [4]: 6.25 µM (≈ 2.51 µg/mL)

COc1ccc(-c2nc3cc(NC(=O)[C@H](N)Cc4ccccc4)ccc3o2)cc1
MIC [2]: 1.56 µM (≈ 0.604 µg/mL)
half-life [3]: 0.417 h
MIC [5]: 1.56 µM (≈ 0.604 µg/mL)
Drug metabolism [6]: Metabolite_Detected

CCOC(=O)COc1ccc(-c2nc3cc(NC(=O)[C@H](N)Cc4ccccc4)ccc3o2)cc1
MIC [2]: 3.13 µM (≈ 1.44 µg/mL)
MIC [5]: 2.3 µM (≈ 1.06 µg/mL)

COc1ccc(-c2nc3cc(N)ccc3o2)cc1
MIC [2]: ≥ 12.5 µM

COc1ccc(Cc2nc3cc(NC(=O)[C@H](N)Cc4ccccc4)ccc3o2)cc1
MIC [2]: 3.13 µM (≈ 1.26 µg/mL)
MIC [5]: 3.13 µM (≈ 1.26 µg/mL)

N[C@H](Cc1ccccc1)C(=O)Nc1ccc2ocnc2c1
MIC [2]: > 50 µM
MIC [5]: 25 µM (≈ 7.03 µg/mL)

COc1ccc(-c2nc3cc(NC(=O)[C@H](N)[C@@H](O)c4ccccc4)ccc3o2)cc1
MIC [2]: > 50 µM
MIC [5]: 25 µM (≈ 10.1 µg/mL)

N[C@H](CCc1ccccc1)C(=O)Nc1ccc2oc(-c3ccc(O)cc3)nc2c1
MIC [2]: 3.13 µM (≈ 1.21 µg/mL)
MIC [5]: 3.13 µM (≈ 1.21 µg/mL)

COc1ccc(-c2nc3cc(-n4cc([C@H](N)Cc5ccccc5)nn4)ccc3o2)cc1
Fu [1]: 0.65%
MIC [2]: 6.25 µM (≈ 2.57 µg/mL)
half-life [3]: > 4 h
MIC [5]: 6.25 µM (≈ 2.57 µg/mL)

N[C@H](Cc1ccccc1)C(=O)Nc1ccc2oc(-c3ccc(O)cc3)nc2c1
MIC [2]: 1.2 µM (≈ 0.448 µg/mL)
MIC [5]: 2.3 µM (≈ 0.859 µg/mL)

COc1ccc(-c2nc3cc(NC[C@H](N)Cc4ccccc4)ccc3o2)cc1
Fu [1]: < 0.1%
MIC [2]: 12.5 µM (≈ 4.67 µg/mL)
half-life [3]: > 4 h
MIC [5]: 9.4 µM (≈ 3.51 µg/mL)

COc1ccc(-c2nc3cc(NC(=S)[C@H](N)Cc4ccccc4)ccc3o2)cc1
MIC [2]: 37 µM (≈ 14.9 µg/mL)
MIC [5]: 19 µM (≈ 7.67 µg/mL)

N[C@H](Cc1ccccc1)C(=O)Nc1ccc2oc(-c3ccc(OC(F)(F)F)cc3)nc2c1
MIC [2]: 3.13 µM (≈ 1.38 µg/mL)
MIC [5]: 3.13 µM (≈ 1.38 µg/mL)

C#CCOc1ccc(-c2nc3cc(NC(=O)[C@H](N)Cc4ccccc4)ccc3o2)cc1
fraction unbound [1]: < 0.004
MIC [2]: 1.2 µM (≈ 0.494 µg/mL)
half-life [3]: 5 h

N[C@@H](CC(=O)Nc1ccc2oc(-c3ccc(O)cc3)nc2c1)Cc1ccccc1
MIC [2]: 19 µM (≈ 7.36 µg/mL)
MIC [5]: 19 µM (≈ 7.36 µg/mL)

From ChEMBL document CHEMBL5236650, “Nonhydrolyzable d‑phenylalanine-benzoxazole derivatives retain antitubercular activity” (Bioorg Med Chem Lett, 2023)
